Assay results reported in US20100154083A1, “Methods and Compositions for the Selection of A Transgenic Plant” (Pioneer Hi-Bred International, Inc., priority 2006, published 2010).

Tested on: non-transgenic maize seed from inbred N46
Experiment: Priming matrix additive: Dormex + DMSO
Type: in vivo
Conditions: 1% DMSO without Dormex, 3 hours
Procedure: Non-transgenic maize seed from inbred N46 were primed with 0, 5, 10, 15, or 30% Dormex® solutions with and without 1% DMSO. For each treatment, 96 seeds were soaked in 50 ml of Dormex® solution in a petri dish for 3 hours at room temperature. After priming the seeds were transferred into pollination bags, and dried overnight in front of a fan. Dried primed seed were then planted into flats to germinate.

C[S+](C)[O-] [DMSO]
Germination %: 93%
